Measured values taken from the supplement of paper PMC4380931.

Experiments:
Assay in all cases: apoptotic fraction of cells (caspase-3 NucView488 positive); higher = more apoptosis
K2 = test system: K2
Experimental: (§1)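 BRAF V600E/D melanoma cell lines were seeded in 96-well plates, treated in 4 replicates with seven doses (3.16 nM to 3.16 uM) of RAF/MEK inhibitors for 24, 48 or 72 h, and stained with Hoechst 33342 (nuclei) and DEVD-NucView488 caspase-3 substrate. Plates were imaged on an Operetta. Relative viability is the cell count normalised to a DMSO-treated control; apoptosis fraction is the fraction of NucView488-positive nuclei.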

MZ7MEL = test system: MZ7MEL
Experimental: as §1

WM1552C = test system: WM1552C
Experimental: as §1

LOXIMVI = test system: LOXIMVI
Experimental: as §1

WM115 = test system: WM115
Experimental: as §1

SKMEL28 = test system: SKMEL28
Experimental: as §1

MMACSF = test system: MMACSF
Experimental: as §1

Cn1cnc2c(F)c(Nc3ccc(Br)cc3Cl)c(C(=O)NOCCO)cc21 [Selumetinib]
apoptotic fraction of cells
Settings | 0.00316 µM | 0.01 µM | 0.0316 µM | 0.1 µM | 0.316 µM | 1 µM | 3.16 µM
K2, 24 h | 0.00506 | 0.00321 | 0.00454 | 0.0128 | 0.0266 | 0.123 | 0.142
K2, 48 h | 0.0027 | 0.00331 | 0.0058 | 0.0372 | 0.0691 | 0.199 | 0.332
LOXIMVI, 24 h | 0.0508 | 0.0393 | 0.0293 | 0.0452 | 0.0393 | 0.0476 | 0.0428
LOXIMVI, 48 h | 0.111 | 0.0778 | 0.0621 | 0.0589 | 0.0582 | 0.0523 | 0.0597
LOXIMVI, 72 h | 0.161 | 0.0676 | 0.0426 | 0.0445 | 0.0604 | 0.0759 | 0.105
MMACSF, 24 h | 0.0508 | 0.0478 | 0.0349 | 0.0436 | 0.0526 | 0.0569 | 0.0615
MMACSF, 48 h | 0.0481 | 0.039 | 0.0469 | 0.0518 | 0.0667 | 0.14 | 0.232
MMACSF, 72 h | 0.0392 | 0.0379 | 0.0318 | 0.0807 | 0.193 | 0.434 | 0.617
MZ7MEL, 24 h | 0.0105 | 0.0133 | 0.0129 | 0.013 | 0.021 | 0.03 | 0.0358
MZ7MEL, 48 h | 0.02 | 0.0157 | 0.0142 | 0.0195 | 0.0385 | 0.0514 | 0.0696
MZ7MEL, 72 h | 0.0201 | 0.0173 | 0.0366 | 0.108 | 0.158 | 0.239 | 0.314
SKMEL28, 48 h | 0.0348 | 0.0333 | 0.0343 | 0.0355 | 0.0422 | 0.0573 | 0.0991
SKMEL28, 72 h | 0.036 | 0.0338 | 0.0305 | 0.037 | 0.0563 | 0.111 | 0.214
WM115, 24 h | 0.0496 | 0.0509 | 0.0515 | 0.0423 | 0.0578 | 0.102 | 0.143
WM115, 48 h | 0.0459 | 0.0343 | 0.0345 | 0.0394 | 0.072 | 0.186 | 0.269
WM115, 72 h | 0.0278 | 0.027 | 0.0324 | 0.0559 | 0.115 | 0.302 | 0.456
WM1552C, 24 h | 0.0571 | 0.0689 | 0.0771 | 0.0894 | 0.0876 | 0.112 | 0.0803
WM1552C, 48 h | 0.065 | 0.0655 | 0.0575 | 0.0656 | 0.0753 | 0.0765 | 0.1
WM1552C, 72 h | 0.0885 | 0.073 | 0.0737 | 0.0814 | 0.104 | 0.146 | 0.19
